According to patent publication US11814376B2, “Hepatitis b core protein modulators” (Assembly Biosciences, Inc., priority 2015, dated 2023):

Tests used:
[1] = test system: HBV viral load in AD38 cells; experiment: Viral load production in AD38 cells, quantitative PCR of the core sequence in supernatant; type: cell-based; details: 10 μM compound, 6 days at 37° C., supernatant qPCR, relative to DMSO control; for activity at 10 µM: Hepatitis B virus, 144 h, read-out: AD38 Viral Load (%) (VL with cmpd/VL in DMSO control) at 10 μM
Experimental: (§1) Example 2: Assay Measuring Activity of Compounds on Viral Production in and on Viability of AD38 Cells
(§2) AD38 cells were then re-suspended with 10 mL of Treatment Medium and counted. Wells of a collagen coated 96-well NUNC microtiter plate were seeded at 50,000/well in 180 μL of Treatment Medium, and 20 μL of in treatment media with either 10% DMSO (Control) or a 10× solution of compound in 10% DMSO was added. Plates were incubated for 6 days at 37° C.
Viral load production was assayed by quantitative PCR of the core sequence. […] The PCR mixture was incubated at 45° C. for 5 minutes, then 95° C. for 10 min, followed by 40 cycles of 10 seconds at 95° C. and 20 seconds at 60° C. Viral load was quantitated against known standards by using ViiA™ 7 Software. Viral load in the supernatant from wells with treated cells were compared against viral load in supernatant from DMSO control wells (>3 per plate).

AD38 cells = experiment: Viability of AD38 cells (Promega CellTiter-Glo); type: cell-based; details: 10 μM compound, 6 days, CellTiter-Glo luminescence normalized to DMSO control (100%)
Experimental: as §1, §2
At the end of compound treatment period cell viability was assessed using a Promega CellTiter-Glo protocol. All supernatant was removed the previously treated 96-well microtiter plate, and 50 μL Tetracycline-free treatment medium (DMEM/F12 (1:1), 1× Pen/step (cat #: 30-002-CL, Mediatech, Inc), with 2% FBS, Tet-system approved (cat #: 631106, Clontech), and 1% DMSO was added back to each well. Another 50 μL of CellTiter-Glo reagent solution (Promega, G7573) was then added at room temperature and the contents mixed for 2 minutes on an orbital shaker to induce cell lysis. This was followed by incubation at room temperature for 10 minutes to stabilize the luminescent signal. The luminescence was recorded for 0.2 seconds per well on a Tecan multimode plate reader (Infinite M1000 pro). The luminescent signal from each well was normalized against that of untreated (DMSO) control wells. All results were reported percent viability (with controls being 100%).

Compound | AD38 Viral Load (%) (VL with cmpd/VL in DMSO control) at 10 μM [1] | AD38 Viability Normalized Result (cmpd/DMSO %) at 10 μM (AD38 cells) [%] | activity at 10 µM [1] [%]
CC(C)(C)OC(=O)NCCCS(=O)(=O)c1ccc(-c2ncc(CNC(=O)c3ccc4c(c3)NC(=O)c3ccccc3S4(=O)=O)s2)cc1 [11032-A, tert-butyl (3-((4-(5-((5,5-dioxido-11-oxo-10, 11-dihydrodibenzo [b, f] [1, 4]thiazepine-8-carboxamido)methyl)thiazol-2-yl)phenyl)sulfonyl)propyl) carbamate] | 12.9 | 110 | 
CN(C)CCOc1ncc(CNC(=O)c2ccc3c(c2)NC(=O)c2ccccc2O3)s1 [compound 1614, N-((2-(2-(dimethylamino)ethoxy)thiazol-5-yl)methyl)-11-oxo-10, 11-dihydrodibenzo [b, f] [1, 4] oxazepine-8-carboxamide] |  | 98 | 8.5
O=C(O)CSc1ncc(CNC(=O)c2ccc3c(c2)NC(=O)c2ccccc2S3(=O)=O)s1 [compound 1589, 2-((5-((5,5-dioxido-11-oxo-10, 11-dihydrodibenzo [b, f] [1, 4]thiazepine-8-carboxamido)methyl)thiazol-2-yl)thio) acetic acid] |  | 98 | 80
Nc1ccc(-c2ncc(CNC(=O)c3ccc4c(c3)NC(=O)c3ccccc3S4(=O)=O)s2)cn1 [compound 1672] |  | 101 | 0.6
O=C(NCc1cnc(-c2ccc(OCCN3CCOCC3)cc2)s1)c1ccc2c(c1)NC(=O)c1ccccc1S2(=O)=O [compound 1587] |  | 99 | 2.8
O=C(NCc1cnc(-c2ccc(O)cc2)s1)c1ccc2c(c1)NC(=O)c1ccccc1S2 [compound 1605] |  | 96 | 0.7
CN(CCCOc1ccc(-c2ncc(CNC(=O)c3ccc4c(c3)NC(=O)c3ccccc3S4(=O)=O)s2)cc1)C1CC1 [compound 11092] |  | 101 | 0.5
O=C(NCc1cnc(-c2ccc(OCCCN3CCC[C@H]3C(=O)O)cc2)s1)c1ccc2c(c1)NC(=O)c1ccccc1S2(=O)=O [compound 11106, (3-(4-(5-((5,5-dioxido-11-oxo-10, 11-dihydrodibenzo [b, f] [1, 4]thiazepine-8-carboxamido)methyl)thiazol-2-yl)phenoxy)propyl)-L-proline] |  | 97 | 3.3
CCc1cc2c(cc1C(=O)NCc1cnc(-c3ccc(C#N)cc3F)s1)NC(=O)c1ccccc1S2(=O)=O [compound 11042] |  | 109 | 0.8
O=C(NCc1cnc(N2CCS(=O)(=O)CC2)s1)c1ccc2c(c1)NC(=O)c1ccccc1O2 [compound 1866] |  | 98 | 2.9
O=C(O)CNc1ncc(CNC(=O)c2ccc3c(c2)NC(=O)c2ccccc2O3)s1 [compound 1615, (5-((11-oxo-10, 11-dihydrodibenzo [b, f] [1, 4]oxazepine-8-carboxamido)methyl)thiazol-2-yl) glycine] |  | 103 | 54.9
O=C(NCc1cnc(-c2ccc(OC[C@@H]3CCNC3)cc2)s1)c1ccc2c(c1)NC(=O)c1ccccc1S2(=O)=O [compound 11140, (R)-11-oxo-N-((2-(4-(pyrrolidin-3-ylmethoxy)phenyl)thiazol-5-yl)methyl)-10, 11-dihydrodibenzo [b, f] [1, 4] thiazepine-8-carboxamide 5,5-dioxide] |  | 99 | 5.5
N#Cc1ccc(-c2ncc(CNC(=O)c3ccc4c(c3)NC(=O)c3ccccc3O4)s2)cc1 [1770-A, N-((2-(4-cyanophenyl)thiazol-5-yl)methyl)-11-oxo-10, 11-dihydrodibenzo [b, f] [1, 4] oxazepine-8-carboxamide] |  | 100 | 29.8
O=C(NCc1cnc(-c2cccnc2)s1)c1ccc2c(c1)NC(=O)c1ccccc1S2(=O)=O [compound 1624] |  | 98 | 0.8
O=C(NCc1cnc(C(=O)c2ccccc2)s1)c1ccc2c(c1)NC(=O)c1ccccc1S2(=O)=O [compound 1929] |  | 93 | 1.2
CC1c2ccc(C(=O)NCc3cnc(-c4ccc(O)cc4)s3)cc2NC(=O)c2ccccc21 (stereo not drawn) [compound 1754] |  | 93 | 1.6
O=C(NCc1cnc(-c2ccc(O)cc2Cl)s1)c1ccc2c(c1)NC(=O)c1ccccc1S2(=O)=O [compound 1668] |  | 106 | 23.4
CN1CCN(c2ncc(CNC(=O)c3ccc4c(c3)NC(=O)c3ccccc3S4(=O)=O)s2)CC1 [compound 1648] |  | 95 | 9.9
Cc1ncc(CNC(=O)c2ccc3c(c2)NC(=O)c2ccccc2C3C)s1 (stereo not drawn) [compound 1548] |  | 97 | 0.4
O=C(NCc1cnc(-c2ccc(O)c(F)c2)s1)c1ccc2c(c1)NC(=O)c1ccccc1O2 [compound 1700] |  | 105 | 9.2
O=C1CCN(c2ncc(CNC(=O)c3ccc4c(c3)NC(=O)c3ccccc3S4(=O)=O)s2)CCN1 [compound 1973] |  | 100 | 33.7
O=C(NCc1cnc(-c2ccc(CCCCN3CCOCC3)cc2)s1)c1ccc2c(c1)NC(=O)c1ccccc1S2(=O)=O [compound 11056] |  | 96 | 0.8
O=C(NCc1cnc(-c2ccc(O)cc2)s1)c1ccc2c(c1)NC(=O)c1ccc(F)cc1S2 [compound 1747] |  | 95 | 3
CN(C)c1ccc(-c2ncc(CNC(=O)c3ccc4c(c3)NC(=O)c3ccccc3O4)s2)cn1 [compound 1708] |  | 90 | 0.8
CN(C)CCCOc1ncc(CN(C)C(=O)c2ccc3c(c2)NC(=O)c2ccccc2O3)s1 [compound 1687, N-((2-(3-(dimethylamino)propoxy)thiazol-5-yl)methyl)-N-methyl-11-oxo-10, 11-dihydrodibenzo [b, f] [1, 4] oxazepine-8-carboxamide] |  | 102 | 49.2
O=C(NCc1cnc(OCCOC2CCCCO2)s1)c1ccc2c(c1)NC(=O)c1ccccc1O2 (stereo not drawn) [1613-A, 11-oxo-N-((2-(2-((tetrahydro-2H-pyran-2-yl)oxy)ethoxy)thiazol-5-yl)methyl)-10, 11-dihydrodibenzo [b, f] [1, 4] oxazepine-8-carboxamide] |  | 95 | 11.5
CC(C)(C)OC(=O)N1CC(COc2ccc(-c3ncc(CNC(=O)c4ccc5c(c4)NC(=O)c4ccccc4S5(=O)=O)s3)cc2)C1 [1995-A, tert-butyl 3-((4-(5-((5,5-dioxido-11-oxo-10, 11-dihydrodibenzo [b, f] [1, 4]thiazepine-8-carboxamido)methyl)thiazol-2-yl)phenoxy)methyl) azetidine-1-carboxylate] | 2.4 | 107 | 
